Bridge positions count the residues as written; N and C are the ends. Square brackets hold non-standard residues; d marks the D form. Peptide text beside a SMILES is read from it. * marks the point of attachment. 2Nal = N[C@@H](Cc1ccc2ccccc2c1)C(=O)O; Benzoyl(4-F) = O=C(c1ccc(F)cc1)*; Cit = NC(=O)NCCC[C@H](N)C(=O)O
Experiments:
Jurkat cells = assay: Migration of Jurkat cells in response to CXCL12; assay type: cell-based, human; conditions: CXCL12 50 ng/ml; peptide incubated with Proteinase K
From the text: AMD3100 was purchased from Sigma, Israel.

human CD4+ T cells = assay: Proliferation and survival of CD4+ T cells; assay type: cell-based; conditions: AMD-3100 20 μM; 4F-benzoyl-TN14003 4-20 μM
Description: (§1) The effect of CXCR4 antagonists on the survival of freshly isolated normal CD4^+ T cells, CD34^+ stem cells and keratinocytes was examined. The proliferation and survival of keratinocytes was not inhibited by CXCR4 antagonists AMD-3100 (20 μM) and 4F-benzoyl-TN14003 (4-20 μM) or the natural ligand CXCL12 (FIG. 2C). The proliferation and survival of CD4^+ T cells was not inhibited by CXCR4 antagonists AMD-3100 (20 μM).

HL-60 cells = assay: Proliferation and apoptosis (Annexin V) of HL-60 cells; assay type: cell-based, human; conditions: 4F-benzoyl-TN14003 4-20 μM
PC3 cells = assay: Proliferation of PC3 prostate tumor cells; assay type: cell-based
Description: (§2) Next, the effect of the CXCR4 modulators on PC3 and PC3-CXCR4.5 prostate tumor cells was tested. […] The proliferation induced by 4F-benzoyl-TN14003 was dose-dependent (FIG. 3B).

[1] = test system: BM derived CD138+ MM cells; assay: Survival and apoptosis of BM derived cells of MM patients; assay type: cell-based, human
K562 cells = assay: Proliferation and apoptosis (Annexin V) of CML K562 cells; assay type: cell-based, human; conditions: K562 (low CXCR4); 4F-benzoyl-TN14003 4-20 μM
From the text: (§3) The proliferation and survival of the CML K562 cells or K562 cells that over-express CXCR4 (indicated “CXCR4 high” or “K562-CXCR4”) was first studied.

ARH77 = assay: Proliferation and apoptosis (annexin) of ARH77 MM cells; assay type: cell-based, human; conditions: 4F-benzoyl-TN14003 0.4-40 μM
U-87 = assay: Proliferation of U-87 glioblastoma cells; assay type: cell-based
K562-CXCR4 = assay: Proliferation and apoptosis (Annexin V) of K562 cells over-expressing CXCR4; assay type: cell-based, human; conditions: K562 high CXCR4; 4F-benzoyl-TN14003 4-20 μM
From the text: as §3

22Rv1 = assay: Proliferation of 22Rv1 prostate carcinoma cells; assay type: cell-based
[2] = test system: human primary keratinocytes; assay: Proliferation and survival of keratinocytes; assay type: cell-based; conditions: AMD-3100 20 μM; 4F-benzoyl-TN14003 4-20 μM
Description: as §1

PC3-CXCR4.5 cells = assay: Proliferation of PC3-CXCR4.5 prostate tumor cells; assay type: cell-based
Description: as §2

NCI human MM cells = assay: Proliferation and apoptosis (annexin) of NCI MM cells; assay type: cell-based; conditions: 4F-benzoyl-TN14003 0.4-40 μM
SKBR3 = assay: Proliferation of SKBR3 breast carcinoma cells; assay type: cell-based
K562L cells = assay: K562L (luciferase) CML model, CCCD camera; assay type: in vivo, NOD/SCID mice
Description: In order to monitor the progression and localization of leukemic cells in vivo, the human CML tumor cell lines K562 (K562L) was stably transduced with a retrovirus carrying the luciferase gene. This cell line was injected IP into NOD/SCID mice (2.5×10^5, 5×10^5, 10^6, 2×10^6 per mouse; FIGS. 18 A-D, respectively) that were pretreated with a sub-lethal dose of radiation in order to diminish any natural killer cell activity and enhance acceptance of the tumor cells. Twenty-four hr after injection of the cells, the light generated internally by the luciferase expressed in the tumor cells and then transmitted through the animal's tissues was monitored externally using a cooled charge-coupled device camera (CCCD). The substrate luciferin was provided exogenously via IP injection. […] Quantitation was achieved by integrating the signal intensity using the Metaview software.
Two therapeutic approaches were studied using this model. […] In addition, the effect of 4F-benzoyl-TN14003 on the growth of cells in vivo was investigated.
Further, the effect of 4F-benzoyl-TN14003 on K562L tumor development was studied. 4F-benzoyl-TN14003 was injected i.p into NOD/SCID mice in the amount of 4 mg/Kg per mouse/per injection. The first injection of 4F-benzoyl-TN14003 was given immediately after the injection of K562-luc cells in an opposite route of injection on the peritoneum. Further injections of 4F-benzoyl-TN14003 were given every three days. Mice were monitored under the CCCD camera, 24 hr after each injection at serial time points, every three days.
4F-benzoyl-TN14003 was injected i.p into NOD/SCID mice in the amount of 2 mg/Kg whereas AMD-3100 was injected 4 mg/Kg per mouse/per injection. The first injection was given 2 days after the injection of K562-luc cells. Further injections were given on days 5, 7 and 11. Mice (n=3) were monitored under the CCCD camera on day 17 after injection of cells.

NB4 cells = assay: Proliferation of NB4 AML cells; assay type: cell-based, human; conditions: compared with HL-60
human NB4 leukemic cells = assay: NB4 leukemic xenograft model; assay type: in vivo, nude mice
Description: Acute promyelocytic leukemia (APL)-derived NB4 cell is extensively used as an in vitro and in vivo model system for studying human leukemia. To investigate the therapeutic anti-tumor potential of the CXCR4 antagonist 4F-benzoyl-TN14003 against human leukemic cells, 10×10^6 NB4 cells were injected subcutaneously (s.c) into immunodeficient nude mice (n=5). After 14 days, tumors were established at the size of 0.4 cm^2, and mice were divided into 4F-benzoyl-TN14003-treated (8 mg/Kg, open squares) and PBS-treated (control, full diamonds) groups. The 4F-benzoyl-TN14003 drug solution was administered intraperitoneal (i.p) each day for 5 days, followed by 2 days without drug, and then 4 additional daily injections (total of 9 injections, FIG. 16).
To further test the effect of 4F-benzoyl-TN14003 against human leukemic cells, 5×10^6 NB4 cells were injected subcutaneously (s.c) into immunodeficient nude mice (n=5). After 14 days, tumors were very small, at the size of 0.02 cm^2, and mice were divided into 4F-benzoyl-TN14003-treated (open squares) and PBS-treated (control, full diamonds) groups. The 4F-benzoyl-TN14003 drug solution was administered subcutaneously (8 mg/Kg) each day for 4 days (total of 4 injections, FIG. 17A). On day 20, all control mice developed tumors (0.49±0.1 cm^2), whereas in the treated mouse group, only 1 mouse developed a small tumor.
On day 31, all control mice developed big tumors in size (FIG. 17A) and weight (FIG. 17B), whereas in the treated group, 4/5 mice developed smaller tumors in size and weight.

N=C(N)NCCC[C@H](NC(=O)[C@@H]1CSSC[C@H](NC(=O)[C@H](Cc2ccc3ccccc3c2)NC(=O)[C@H](CCCNC(=N)N)NC(=O)[C@H](CCCNC(=N)N)NC(=O)c2ccc(F)cc2)C(=O)N[C@@H](Cc2ccc(O)cc2)C(=O)N[C@@H](CCCNC(N)=O)C(=O)N[C@@H](CCCCN)C(=O)N[C@H](CCCCN)C(=O)N2CCC[C@H]2C(=O)N[C@@H](Cc2ccc(O)cc2)C(=O)N[C@@H](CCCNC(=N)N)C(=O)N[C@@H](CCCNC(N)=O)C(=O)N1)C(N)=O [4F-benzoyl-TN14003, 4F-benzoyl-Arg-Arg-Nal-Cys-Tyr-Cit-Lys-DLys-Pro-Tyr-Arg-Cit-Cys-Arg-NH2] ({Benzoyl(4-F)}-RR[2Nal]CY[Cit]K[dK]PYR[Cit]CR-NH2; disulfide 4-13)
activity on migration of Jurkat cells in response to CXCL12 after treatment of the peptide with proteinease K (Jurkat cells): abolished the activity of the peptide
proliferation and survival of CD4+ T cells (human CD4+ T cells): induced T cell proliferation
apoptotic cell death (Annexin V assay) (HL-60 cells): stimulate apoptotic cell death
growth (HL-60 cells): inhibit the growth
proliferation (PC3 cells): induced the proliferation of prostate cancer cells
apoptosis of CD138+ MM cells ([1]; 8 μM, 24 hr): induced apoptosis
sensitivity of normal BM samples or BM samples with low percentage of MM cells ([1]; freshly isolated BM cells): not sensitive to treatment
sensitivity of BM derived samples with high percentage of MM ([1]; freshly isolated BM cells of MM patients): sensitive to treatment
apoptotic cell death (Annexin V assay) (K562 cells): stimulated apoptotic cell death
growth (K562 cells): inhibited the growth
apoptotic cell death (annexin assay) (ARH77): stimulated apoptotic cell death
growth (ARH77): inhibited the growth
proliferation (U-87): either stimulated or not affected
apoptotic cell death (Annexin V assay) (K562-CXCR4): stimulated apoptotic cell death
growth (K562-CXCR4): inhibited the growth
proliferation (22Rv1): either stimulated or not affected
proliferation and survival of keratinocytes [2]: not inhibited
proliferation (PC3-CXCR4.5 cells): induced the proliferation of prostate cancer cells
apoptotic cell death (annexin assay) (NCI human MM cells): stimulated apoptotic cell death
growth (NCI human MM cells): inhibited the growth
proliferation (SKBR3): either stimulated or not affected
inhibition in K562L tumor development (K562L cells; 2 mg/Kg i.p. days 2, 5, 7, 11, day 17, FIG. 21): > 90%
inhibition in K562L tumor development over time (K562L cells; 4 mg/Kg i.p. every three days, FIG. 20): 50%
sensitivity of NB4 cells (inhibitory effect) (NB4 cells): less sensitive
mice that developed smaller tumors in size and weight on day 31 (human NB4 leukemic cells; 8 mg/Kg s.c. each day for 4 days): 4/5
mice that developed a tumor on day 20 (human NB4 leukemic cells; 8 mg/Kg s.c. each day for 4 days, n=5, all control mice developed tumors): 1
tumor growth (human NB4 leukemic cells; established tumors 0.4 cm^2, 8 mg/Kg i.p., 9 injections): tumor growth was arrested

Reference: patent US8765683B2, “T-140 peptide analogs having CXCR4 super-agonist activity for cancer therapy” (Biokine Therapeutics Ltd., priority 2006, dated 2014)
